Patent publication US20240115718A1, “METHODS OF USING ANTI-CD79B IMMUNOCONJUGATES TO TREAT DIFFUSE LARGE B-CELL LYMPHOMA” (Genentech, Inc., priority 2021, published 2024)

Test system: patients with relapsed or refractory diffuse large B-cell lymphoma (R/R DLBCL)
Assay: Phase Ib/II study of Pola-R-Len, safety: adverse events graded per NCI CTCAE Version 4.0
Format: in vivo, human
Details: in combination with polatuzumab vedotin 1.8 mg/kg and rituximab 375 mg/m^2; PO Days 1-21 of 28-day cycles
Experimental: Adverse events were assessed based on the National Cancer Institute Common Terminology Criteria for Adverse Events (NCI CTCAE; Version 4.0). Adverse events that are not specifically listed in the NCI CTCAE were graded as follows: • Grade 1: Mild; asymptomatic or mild symptoms; clinical or diagnostic observations only; or intervention not indicated. • Grade 2: Moderate; minimal, local, or non-invasive intervention indicated; or limiting age-appropriate instrumental activities of daily living. • Grade 3: Severe or medically significant, but not immediately life threatening; hospitalization or prolongation of hospitalization indicated; disabling; or limiting self-care activities of daily living. • Grade 4: Life-threatening consequences or urgent intervention indicated. • Grade 5: Death related to adverse event.
The following populations were defined: • The primary safety and efficacy populations included patients who received at least one dose of any component of the treatment combination. • The intent-to-treat population included patients enrolled in the study.

Compound: Nc1cccc2c1CN(C1CCC(=O)NC1=O)C2=O (stereo not shown) [lenalidomide]
- recommended Phase II dose (RP2D): 20 mg
